According to patent US4725683A, “Fluorophenoxyphenoxypropionates and derivatives thereof” (The Dow Chemical Company, priority 1985, dated 1988):

Assays:
Assay in all cases: Preemergent activity
Assay type in all cases: in vivo
Yellow Foxtail = details: Setaria, pre-emergence, read-out: Preemergence Control; for pest or weed control at 70 g/ha: 0.07 kgs/hectare; for pest or weed control at 140 g/ha: 0.14 kgs/hectare; for pest or weed control at 280 g/ha: 0.28 kgs/hectare; for pest or weed control at 560 g/ha: 0.56 kgs/hectare; for pest or weed control at 1120 g/ha: 1.12 kgs/hectare
Experimental: (§1) In a representative operation, 2-[4-(2-fluoro-4-trifluoromethylphenoxy)phenoxy]propionic acid methyl ester, to be utilized in a series of tests, is dissolved in acetone to one half of the final volume (twice the final concentration) to be used and the acetone solution in each case is admixed with an equal volume of water containing 0.1 percent by weight of Tween-20 surface active material (Tween-20 is a trademark of Atlas Chemical Company). The composition, generally in the nature of an emulsion, was employed to treat separate respective seed beds of sandy loam soil of good nutrient content wherein each seed bed contained separate groups of good viable seeds, each group being of one of a known plant species. The various beds were positioned side by side and exposed to substantially identical conditions of temperature and light. Each bed was maintained so as to prevent any interaction with the test compound in different seed beds. Each seed bed was treated with the composition as a spray employing conventional spraying equipment to deposit a predetermined amount of the compound uniformly throughout the surface of the bed. Another seed bed was treated only with the acetone-Tween-20 water mixture with no chemical added to serve as a control.

Johnson Grass = details: Sorghum halepense, pre-emergence, read-out: Preemergence Control; for pest or weed control at 70 g/ha: 0.07 kgs/hectare; for pest or weed control at 140 g/ha: 0.14 kgs/hectare; for pest or weed control at 280 g/ha: 0.28 kgs/hectare; for pest or weed control at 560 g/ha: 0.56 kgs/hectare; for pest or weed control at 1120 g/ha: 1.12 kgs/hectare
Experimental: as §1

Wild Oats = details: Avena fatua, pre-emergence, read-out: Preemergence Control; for pest or weed control at 70 g/ha: 0.07 kgs/hectare; for pest or weed control at 140 g/ha: 0.14 kgs/hectare; for pest or weed control at 280 g/ha: 0.28 kgs/hectare; for pest or weed control at 560 g/ha: 0.56 kgs/hectare; for pest or weed control at 1120 g/ha: 1.12 kgs/hectare
Experimental: as §1

Barnyard Grass = details: Echinochloa crus-galli, pre-emergence, read-out: Preemergence Control; for pest or weed control at 70 g/ha: 0.07 kgs/hectare; for pest or weed control at 140 g/ha: 0.14 kgs/hectare; for pest or weed control at 280 g/ha: 0.28 kgs/hectare; for pest or weed control at 560 g/ha: 0.56 kgs/hectare; for pest or weed control at 1120 g/ha: 1.12 kgs/hectare
Experimental: as §1

Wheat = details: Triticum aestivum, pre-emergence, read-out: Preemergence Control; for plant injury at 70 g/ha: 0.07 kgs/hectare; for plant injury at 140 g/ha: 0.14 kgs/hectare; for plant injury at 280 g/ha: 0.28 kgs/hectare; for plant injury at 560 g/ha: 0.56 kgs/hectare; for plant injury at 1120 g/ha: 1.12 kgs/hectare
Experimental: as §1

In the case of `CCCCOC(=O)C(C)Oc1ccc(Oc2ccc(Br)cc2F)cc1` (stereo not shown) [O(CH2)3 CH3, Propionic acid: 2-(4-(4-bromo-2-fluorophenoxy)phenoxy), n-butyl ester], the pest or weed control at 70 g/ha (Yellow Foxtail) is reported as 0%, the pest or weed control at 140 g/ha (Yellow Foxtail) is reported as 40% and the pest or weed control at 280 g/ha (Yellow Foxtail) is reported as 95%. It also gave a pest or weed control at 560 g/ha (Yellow Foxtail) of 100%, a pest or weed control at 1120 g/ha (Yellow Foxtail) of 100% and a pest or weed control at 70 g/ha (Johnson Grass) of 0%. It also gave a pest or weed control at 140 g/ha (Johnson Grass) of 0%, a pest or weed control at 280 g/ha (Johnson Grass) of 65% and a pest or weed control at 560 g/ha (Johnson Grass) of 100%. It also gave a pest or weed control at 1120 g/ha (Johnson Grass) of 100%, a pest or weed control at 70 g/ha (Wild Oats) of 0% and a pest or weed control at 140 g/ha (Wild Oats) of 0%. It also gave a pest or weed control at 280 g/ha (Wild Oats) of 50%, a pest or weed control at 560 g/ha (Wild Oats) of 80% and a pest or weed control at 1120 g/ha (Wild Oats) of 100%. The pest or weed control at 70 g/ha (Barnyard Grass) was 0%, the pest or weed control at 140 g/ha (Barnyard Grass) was 70% and the pest or weed control at 280 g/ha (Barnyard Grass) was 100%. For the same compound, the pest or weed control at 560 g/ha (Barnyard Grass) was 100%, the pest or weed control at 1120 g/ha (Barnyard Grass) was 100% and the plant injury at 70 g/ha (Wheat) was 0%. The plant injury at 140 g/ha (Wheat) was 0%, the plant injury at 280 g/ha (Wheat) was 0% and the plant injury at 560 g/ha (Wheat) was 30%. It also gave a plant injury at 1120 g/ha (Wheat) of 30%.

`CC(Oc1ccc(Oc2ccc(Br)cc2F)cc1)C(=O)N(C)c1ccccc1` (stereo not shown) showed a pest or weed control at 140 g/ha (Yellow Foxtail) of 0%, a pest or weed control at 1120 g/ha (Yellow Foxtail) of 0% and a pest or weed control at 140 g/ha (Johnson Grass) of 0%. It also gave a pest or weed control at 1120 g/ha (Johnson Grass) of 0%, a pest or weed control at 140 g/ha (Wild Oats) of 0% and a pest or weed control at 1120 g/ha (Wild Oats) of 0%. It also gave a pest or weed control at 140 g/ha (Barnyard Grass) of 0%, a pest or weed control at 1120 g/ha (Barnyard Grass) of 0% and a plant injury at 70 g/ha (Wheat) of 0%. The plant injury at 140 g/ha (Wheat) was 0%, the plant injury at 280 g/ha (Wheat) was 0% and the plant injury at 560 g/ha (Wheat) was 0%. For the same compound, the plant injury at 1120 g/ha (Wheat) was 0%.

`C=CCOC(=O)C(C)Oc1ccc(Oc2ccc(Br)cc2F)cc1` (stereo not shown) [OCH2 CCH2] showed a pest or weed control at 70 g/ha (Yellow Foxtail) of 30%, a pest or weed control at 140 g/ha (Yellow Foxtail) of 30% and a pest or weed control at 280 g/ha (Yellow Foxtail) of 90%. It also gave a pest or weed control at 560 g/ha (Yellow Foxtail) of 100%, a pest or weed control at 1120 g/ha (Yellow Foxtail) of 100% and a pest or weed control at 70 g/ha (Johnson Grass) of 0%. It also gave a pest or weed control at 140 g/ha (Johnson Grass) of 0%, a pest or weed control at 280 g/ha (Johnson Grass) of 80% and a pest or weed control at 560 g/ha (Johnson Grass) of 90%. The pest or weed control at 1120 g/ha (Johnson Grass) was 100%, the pest or weed control at 70 g/ha (Wild Oats) was 0% and the pest or weed control at 140 g/ha (Wild Oats) was 0%. The pest or weed control at 280 g/ha (Wild Oats) was 40%, the pest or weed control at 560 g/ha (Wild Oats) was 70% and the pest or weed control at 1120 g/ha (Wild Oats) was 70%. The pest or weed control at 70 g/ha (Barnyard Grass) was 95%, the pest or weed control at 140 g/ha (Barnyard Grass) was 100% and the pest or weed control at 280 g/ha (Barnyard Grass) was 100%. For the same compound, the pest or weed control at 560 g/ha (Barnyard Grass) was 100%, the pest or weed control at 1120 g/ha (Barnyard Grass) was 100% and the plant injury at 70 g/ha (Wheat) was 0%. The plant injury at 140 g/ha (Wheat) was 0%, the plant injury at 280 g/ha (Wheat) was 0% and the plant injury at 560 g/ha (Wheat) was 0%. For the same compound, the plant injury at 1120 g/ha (Wheat) was 70%.

`CC(Oc1ccc(Oc2ccc(Br)cc2F)cc1)C(=O)Nc1ccc(C(F)(F)F)cc1` (stereo not shown) gave a pest or weed control at 140 g/ha (Yellow Foxtail) of 0%, a pest or weed control at 1120 g/ha (Yellow Foxtail) of 0% and a pest or weed control at 140 g/ha (Johnson Grass) of 0%. The pest or weed control at 1120 g/ha (Johnson Grass) was 20%, the pest or weed control at 140 g/ha (Wild Oats) was 0% and the pest or weed control at 1120 g/ha (Wild Oats) was 60%. The pest or weed control at 140 g/ha (Barnyard Grass) was 0%, the pest or weed control at 1120 g/ha (Barnyard Grass) was 50% and the plant injury at 70 g/ha (Wheat) was 0%. The plant injury at 140 g/ha (Wheat) was 0%, the plant injury at 280 g/ha (Wheat) was 0% and the plant injury at 560 g/ha (Wheat) was 0%. For the same compound, the plant injury at 1120 g/ha (Wheat) was 0%.

In the case of `C#CCOC(=O)C(C)Oc1ccc(Oc2ccc(Br)cc2F)cc1` (stereo not shown) [OCH2CCH], the pest or weed control at 70 g/ha (Yellow Foxtail) is reported as 0%, the pest or weed control at 140 g/ha (Yellow Foxtail) is reported as 60% and the pest or weed control at 280 g/ha (Yellow Foxtail) is reported as 95%. For the same compound, the pest or weed control at 560 g/ha (Yellow Foxtail) was 100%, the pest or weed control at 1120 g/ha (Yellow Foxtail) was 100% and the pest or weed control at 70 g/ha (Johnson Grass) was 0%. For the same compound, the pest or weed control at 140 g/ha (Johnson Grass) was 20%, the pest or weed control at 280 g/ha (Johnson Grass) was 50% and the pest or weed control at 560 g/ha (Johnson Grass) was 100%. For the same compound, the pest or weed control at 1120 g/ha (Johnson Grass) was 100%, the pest or weed control at 70 g/ha (Wild Oats) was 0% and the pest or weed control at 280 g/ha (Wild Oats) was 50%. For the same compound, the pest or weed control at 560 g/ha (Wild Oats) was 50%, the pest or weed control at 1120 g/ha (Wild Oats) was 70% and the pest or weed control at 70 g/ha (Barnyard Grass) was 0%. It also gave a pest or weed control at 140 g/ha (Barnyard Grass) of 20%, a pest or weed control at 280 g/ha (Barnyard Grass) of 100% and a pest or weed control at 560 g/ha (Barnyard Grass) of 100%. It also gave a pest or weed control at 1120 g/ha (Barnyard Grass) of 100%, a plant injury at 70 g/ha (Wheat) of 0% and a plant injury at 140 g/ha (Wheat) of 0%. It also gave a plant injury at 280 g/ha (Wheat) of 0%, a plant injury at 560 g/ha (Wheat) of 0% and a plant injury at 1120 g/ha (Wheat) of 0%.
